# According to US10017480B2, “Compounds having a selective PDE4D inhibiting activity” (UNIVERSITÂ DEGLI STUDI DI GENOVA, priority 2014, dated 2018):
# Values joined by “and” are separate entries in the source; they are usually repeats but may differ in a detail not shown here. Equal values may be shown once. Where a name gives a salt, the structure may show the parent alone. Read-outs that look alike come from different tables or passages of the source.
# Assays:
# PDE4D3 = PDE4D3 (Homo sapiens, UniProt Q08499); assay: PDE4D3 enzyme inhibition (IMAP); type: biochemical
# Sequence of PDE4D3 (Q08499 1-673 isoform Q08499-2): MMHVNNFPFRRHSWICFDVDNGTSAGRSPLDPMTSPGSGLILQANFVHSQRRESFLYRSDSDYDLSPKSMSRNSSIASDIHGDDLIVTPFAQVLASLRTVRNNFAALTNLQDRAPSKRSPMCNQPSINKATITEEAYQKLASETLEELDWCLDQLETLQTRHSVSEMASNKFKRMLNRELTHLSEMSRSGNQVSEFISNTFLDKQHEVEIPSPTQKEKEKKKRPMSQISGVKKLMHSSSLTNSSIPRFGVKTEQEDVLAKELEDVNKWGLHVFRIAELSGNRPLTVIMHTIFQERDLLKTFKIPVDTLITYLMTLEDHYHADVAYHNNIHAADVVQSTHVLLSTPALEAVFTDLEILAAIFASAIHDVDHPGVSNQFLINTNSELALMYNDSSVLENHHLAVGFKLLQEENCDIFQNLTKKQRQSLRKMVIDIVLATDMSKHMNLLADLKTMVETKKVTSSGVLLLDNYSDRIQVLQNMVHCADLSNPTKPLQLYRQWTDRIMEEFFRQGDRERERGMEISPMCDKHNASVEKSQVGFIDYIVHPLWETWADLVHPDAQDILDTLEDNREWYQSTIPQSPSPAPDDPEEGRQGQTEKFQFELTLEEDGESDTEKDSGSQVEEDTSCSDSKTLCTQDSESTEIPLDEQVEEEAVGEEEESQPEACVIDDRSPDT
# Description: Compound's evaluation on PDE4D3, PDE4A4, PDE4B2 and PDE4C2 enzyme assays were performed by Scottish Biomedical (Glasgow, Scotland, UK) using recombinant human PDE enzymes expressed in a baculoviral system. The preliminary screening assays were performed by the IMAP technology (Molecular Devices), which is based on the high affinity binding of phosphate by immobilized metal coordination complexes on nanoparticles. The binding reagent complexes with phosphate groups on nucleotide monophosphate generated from cyclic nucleotides (cAMP) through phosphodiesterases. With fluorescence polarization detection, binding causes a change in the rate of the molecular motion of the phosphate bearing molecule and results in an increase in the fluorescence polarization value observed for the fluorescent label attached to the substrate. […] All compounds were solved in DMSO at 10^−2 M concentration and then diluted with water to the final suitable concentrations. All synthesized compounds were tested preliminary on PDE4D3 at 10^−5 M concentration, in duplicate. Results are expressed as a percent inhibition of control activity (see table 1).
# IC50 values are reported at μM concentration in table 1. […] The results are reported (as percent of inhibition at 10 μM concentration) in Table 1.
melting point,"PDE4D3 % inib at 10 μM (PDE4D3; 10 μM, in duplicate) [%]",PDE4D3 % inib at 10 μM (PDE4D3) [%],SMILES
188 to 189 °C,,,"COc1ccc(-c2ccn(CC(O)CN3CC(C)OC(C)C3)n2)cc1OC1CCCC1 (centres unmarked) (as salt: salt) [XVIIIb, 1-{3-[3-(Cyclopentyloxy)-4-methoxyphenyl]-1H-pyrazol-1-yl}-3-(2,6-dimethylmorpholin-4-yl)propan-2-ol dihydrocloride]"
115 to 116 °C,21,,"COc1ccc(C2=NOC(C(=O)N3CCOCC3)C2)cc1OC1CCCC1 (centres unmarked) [XIIIa, 4-({3-[3-(Cyclopentyloxy)-4-methoxyphenyl]-4,5-dihydroisoxazol-5-yl}carbonyl)morpholine]"
127 to 129 °C,29,,"COc1ccc(C2=NOC(C(=O)N3CC(C)OC(C)C3)C2)cc1OC1CCCC1 (centres unmarked) [XIIIb, 4-({3-[3-(Cyclopentyloxy)-4-methoxyphenyl]-4,5-dihydroisoxazol-5-yl}carbonyl)-2,6-dimethylmorpholine]"
134 °C,26,,"COc1ccc(C2=NOC(C(=O)N3CCC(O)CC3)C2)cc1OC1CCCC1 (centres unmarked) [XIIIc, 1-({3-[3-(Cyclopentyloxy)-4-methoxyphenyl]4,5-dihydroisoxazol-5-yl}carbonyl)piperidin-4-ol]"
126 to 127 °C,15,,"COc1ccc(C2=NOC(C(=O)N3CCCC3)C2)cc1OC1CCCC1 (centres unmarked) [XIIId, 3-[3-(Cyclopentyloxy)-4-methoxyphenyl]-5-(pyrrolidin-1-ylcarbonyl)-4,5-dihydroisoxazole]"
130 °C,8,,"COc1ccc(C2=NOC(C(=O)N3CCCCC3)C2)cc1OC1CCCC1 (centres unmarked) [XIIIe, 1-({3-[3-(Cyclopentyloxy)-4-methoxyphenyl]-4,5-dihydroisoxazol-5-yl}carbonyl)piperidine]"
144 °C and 144 to 145 °C,29,,"COc1ccc(C2=NOC(CC(=O)N3CCOCC3)C2)cc1OC1CCCC1 (centres unmarked) [XIVa, 4-({3-[3-(Cyclopentyloxy)-4-methoxyphenyl]-4,5-dihydroisoxazol-5-yl}acetyl)morpholine]"
134 °C,30,,"COc1ccc(C2=NOC(CC(=O)N3CCC(O)CC3)C2)cc1OC1CCCC1 (centres unmarked) [XIVc, 1-({3-[3-(Cyclopentyloxy)-4-methoxyphenyl]-4,5-dihydroisoxazol-5-yl}acetyl)piperidin-4-ol]"
152 to 153 °C,35,,"COc1ccc(-c2cc(C(=O)N3CC(C)OC(C)C3)on2)cc1OC1CCCC1 (centres unmarked) [XVIIb, 4-({3-[3-(Cyclopentyloxy)-4-methoxyphenyl]isoxazol-5-yl}carbonyl)-2,6-dimethylmorpholine]"
108 to 112 °C,13,,"COc1ccc(-c2ccn(CC(=O)N3CC(C)OC(C)C3)c2)cc1OC1CCCC1 (centres unmarked) [XXIIIb, 2-{3-[3-(Cyclopentyloxy)-4-methoxy-phenyl]-pyrrol-1-yl}-1-(2,6-dimethyl-morpholin-4-yl)-ethanone]"
,6,,"COc1ccc(-c2c[nH]cc2C(=O)N2CC(C)OC(C)C2)cc1OC1CCCC1 (centres unmarked) [XXVIb, {4-[3-(Cyclopentyloxy)-4-methoxy-phenyl]-1H-pyrrol-3-yl}-(2,6-dimethyl-morpholin-4-yl)-methanone]"
,36,,"COc1ccc(-c2ccn(CC(O)CN3CC(C)OC(C)C3)c2)cc1OC1CCCC1 (centres unmarked) [XXVb, 1-{3-[3-(Cyclopentyloxy)-4-methoxy-phenyl]-pyrrol-1-yl}-3-(2,6-dimethyl-morpholin-4-yl)-propan-2-ol]"

# Continued, compound first:
SMILES,melting point,"PDE4D3 % inib at 10 μM (PDE4D3; 10 μM, in duplicate) [%]",PDE4D3 % inib at 10 μM (PDE4D3) [%]
"COc1ccc(-c2cc(C(=O)CN3CCOCC3)on2)cc1OC1CCCC1 (as salt: hydrochloride) [XVa, 1-{3-[3-(Cyclopentyloxy)-4-methoxyphenyl]isoxazol-5-yl}-2-morpholin-4-ylethanone hydrochloride]",175 °C (dec.),,
"COc1ccc(-c2cc(C(=O)CN3CC(C)OC(C)C3)on2)cc1OC1CCCC1 (centres unmarked) (as salt: hydrochloride) [XVb, 1-{3-[3-(Cyclopentyloxy)-4-methoxyphenyl]isoxazol-5-yl}-2-(2,6-dimethylmorpholin-4-yl)ethanone hydrochloride]",200 °C (dec.),,
"COc1ccc(-c2ccn(CC(O)CN3CCOCC3)n2)cc1OC1CCCC1 (centres unmarked) (as salt: salt) [XVIIIa, 1-{3-[3-(Cyclopentyloxy)-4-methoxyphenyl]-1H-pyrazol-1-yl}-3-morpholin-4-ylpropan-2-ol dihydrocloride]",162 to 163 °C,,
"COc1ccc(C2=NOC(C(=O)N(CCO)CCO)C2)cc1OC1CCCC1 (centres unmarked) [XIIIf, 3-[3-(Cyclopentyloxy)-4-methoxyphenyl]-N,N-bis(2-hydroxyethyl)-4,5-dihydroisoxazole-5-carboxamide]",,33,
"COc1ccc(C2=NOC(CC(=O)N3CCCCC3)C2)cc1OC1CCCC1 (centres unmarked) [XIVe, 1-({3-[3-(Cyclopentyloxy)-4-methoxyphenyl]-4,5-dihydroisoxazol-5-yl}acetyl)piperidine]",104 to 106 °C,40,
"COc1ccc(C2=NOC(CC(=O)N3CCNCC3)C2)cc1OC1CCCC1 (centres unmarked) [XIVf, 1-({3-[3-(Cyclopentyloxy)-4-methoxyphenyl]-4,5-dihydroisoxazol-5-yl}acetyl)piperazine]",108 to 111 °C,23,
"COc1ccc(-c2ccn(CC(O)CN3CCC(O)CC3)n2)cc1OC1CCCC1 (centres unmarked) [XVIIIc, 1-(3-{3-[3-(cyclopentyloxy)-4-methoxyphenyl]4H-pyrazol-1-yl}-2-hydroxypropyl)piperidin-4-ol]",,2,
"COc1ccc(-c2cc(C(=O)N3CCOCC3)on2)cc1OC1CCCC1 [XVIIa, 4-({3-[3-(Cyclopentyloxy)-4-methoxyphenyl]isoxazol-5-yl}carbonyl)morpholine]",100 to 101 °C,41,
"COc1ccc(-c2cc(C(O)CN3CCOCC3)on2)cc1OC1CCCC1 (centres unmarked) [XVIa, 1-{3-[3-(Cyclopentyloxy)-4-methoxyphenyl]isoxazol-5-yl}-2-morpholin-4-ylethanol]",136 to 137 °C,38,
"COc1ccc(-c2cc(C(=O)CN3CCOCC3)on2)cc1OC1CCCC1 [XVa, 1-{3-[3-(Cyclopentyloxy)-4-methoxyphenyl]isoxazol-5-yl}-2-morpholin-4-ylethanone hydrochloride]",,39,
"COc1ccc(-c2cc(C(=O)CN3CC(C)OC(C)C3)on2)cc1OC1CCCC1 (centres unmarked) [XVb, 1-{3-[3-(Cyclopentyloxy)-4-methoxyphenyl]isoxazol-5-yl}-2-(2,6-dimethylmorpholin-4-yl)ethanone hydrochloride]",,13,
"COc1ccc(-c2ccn(CC(=O)N3CCOCC3)c2)cc1OC1CCCC1 [XXIIIa, 2-{3-[3-(cyclopentyloxy)-4-methoxy-phenyl]-pyrrol-1-yl}-1-morpholin-4-yl-ethanone]",169 to 171 °C,7,
"COc1ccc(-c2ccn(CC(=O)N3CCC(O)CC3)c2)cc1OC1CCCC1 [XXIIIc, 2-{3-[3-(Cyclopentyloxy)-4-methoxy-phenyl]-pyrrol-1-yl}-1-(4-hydroxy-piperidin-1-yl)-ethanone]",156 to 158 °C,9,
"OC1CCN(CC(O)Cn2ccc(-c3ccc(OC(F)F)c(OC4CCCC4)c3)n2)CC1 (centres unmarked) [XXIIc, 1-(3-{3-[3-(cyclopentyloxy)-4-difluoromethoxy-phenyl]-pyrazol-1-yl}-2-hydroxy-propyl)-piperidin-4-ol]",,,73
"COc1ccc(-c2ccn(CCC(=O)N3CCOCC3)c2)cc1OC1CCCC1 [XXIVa, 3-{3-[3-(cyclopentyloxy)-4-methoxy-phenyl]-pyrrol-1-yl}-1-morpholin-4-yl-propan-1-one]",110 to 112 °C,44,
"COc1ccc(-c2c[nH]cc2C(=O)N2CCOCC2)cc1OC1CCCC1 [XXVIa, {4-[3-(Cyclopentyloxy)-4-methoxy-phenyl]-1H-pyrrol-3-yl}-morpholin-4-yl-methanone]",,13,
"COc1ccc(-c2c[nH]cc2C(=O)N2CCC(O)CC2)cc1OC1CCCC1 [XXVIc, {4-[3-(Cyclopentyloxy)-4-methoxy-phenyl]-1H-pyrrol-3-yl}-(4-hydroxy-piperidin-1-yl)-methanone]",,15,
"COc1ccc(-c2ccn(CC(O)CN3CCOCC3)c2)cc1OC1CCCC1 (centres unmarked) [XXVa, 1-{3-[3-(Cyclopentyloxy)-4-methoxy-phenyl]-pyrrol-1-yl}-3-morpholin-4-yl-propan-2-ol]",,21,
"COc1ccc(-c2ccn(CC(O)CN3CCC(O)CC3)c2)cc1OC1CCCC1 (centres unmarked) [XXVc, 1-(3-{3-[3-(cyclopentyloxy)-4-methoxy-phenyl]-pyrrol-1-yl}-2-hydroxy-propyl)-piperidin-4-ol]",,5,
